Measurements published in publication PMC8569681, “New Pyrimidine and Pyridine Derivatives as Multitarget Cholinesterase Inhibitors: Design, Synthesis, and In Vitro and In Cellulo Evaluation” (ACS Chemical Neuroscience, 2021).
Read-outs that look alike come from different tables or passages of the source.

How the values were obtained:
[1] = target: T1, Electrophorus electricus AChE (EeAChE) (Electrophorus electricus, UniProt O42275); assay: Percent inhibition of EeAChE, Ellman's spectrophotometric method; assay type: biochemical; conditions: for inhibition at 90 µM: read-out: % inhibition vs EeAChE ± SD (90 uM), 90 uM; for inhibition at 900 µM: read-out: % inhibition vs EeAChE ± SD (900 uM), 900 uM; for inhibition at 0.9 µM: read-out: % inhibition vs EeAChE ± SD, [I] 900 nM
T1 construct: purchased Sigma-Aldrich (Milan, Italy)
Procedure: (§1) All other chemical and biological reagents and solvents used were of the highest analytical, commercially available grade. The water, utilized for the preparation of the phosphate buffer and of the compound solutions, was distilled and filtered on nylon membrane filters with a 0.2 μm pore size with the Millipore Filtration apparatus before each use. Micropipettes Labmate (BRAND Dig. 10–100 μL; Dig. 100–1000 μL; Dig. 0.1–2 μL) and Transferpette (HIGH TECH LAB LM200: 20–200 μL; LM5000: 1000–5000 μL) were used to collect the samples. The assays were carried out by a double beam UV–vis Lambda 40 Perkin Elmer spectrophotometer using optical polystyrene cuvettes (10 × 10 × 45 mm, 340–800 nm optical transparency); each measure was repeated at least in triplicate. […] The spectrophotometric method of Ellman[25] with minor modifications was used to evaluate the inhibition of ChEs. […] EeAChE and eqBChE were periodically tested to evaluate the effective enzymatic activity.
(§2) For all the synthesized compounds, the percentages of inhibition toward AChE of Electrophorus electricus (EeAChE) and equine BChE (eqBChE) were evaluated.
Three milliliters of a solution in 0.1 M phosphate buffer (pH = 7.4) containing DTNB (0.25 mM) and EeAChE (0.083 UmL^–1) or eqBChE (0.083 UmL^–1) was placed in a polystyrene cuvette of 1.0 cm path length; 1 μL of a […] With this solution, the blank was made. […] Each experiment was repeated at least in triplicate.

equine BChE (eqBChE) = target: T2, equine BChE (eqBChE) (Equus caballus, UniProt P81908); assay: Percent inhibition of eqBChE, Ellman's spectrophotometric method; assay type: biochemical; conditions: for inhibition at 0.9 µM: [I] 900 nM; for % inhibition vs eqBChE ± SD (900 uM): 900 nM
T2 construct: purchased Sigma-Aldrich (Milan, Italy)
Procedure: On the synthesized compounds, enzymatic inhibition studies were carried out toward Electrophorus electricus AChE (EeAChE) and equine BChE (eqBChE) according to Ellman’s spectrophotometric method.[25]
as §1, §2
Three milliliters of a solution in 0.1 M phosphate buffer (pH = 7.4) containing DTNB (0.25 mM) and EeAChE (0.083 UmL^–1) or eqBChE (0.083 UmL^–1) was placed in a polystyrene cuvette of 1.0 cm path length; 1 μL of a solution in DMSO of the tested compound was added to obtain a cuvette concentration range of 9–0.09 μM. With this solution, the blank was made. […] Each experiment was repeated at least in triplicate.

[2] = Antioxidant activity, DPPH spectrophotometric method; conditions: DPPH, absorbance at 515 nm
Procedure: The antioxidant activity assays were carried out according to the 2,2-diphenyl-1-picrylhydrazyl (DPPH) spectrophotometric method.[34] Initially, to assess whether the compounds had antioxidant activity and to define the time required by each antioxidant to reach the steady state, the reduction in absorbance over time at 515 nm of a solution of DPPH mixed with the tested compound was recorded until reaching the plateau. […] The value of EC50 can be extrapolated by plotting the percentage of residual DPPH at the steady state as a function of the molar ratio of the antioxidant to initial DPPH.
2,2-Diphenyl-1-picrylhydrazyl (DPPH), MeOH, and ascorbic acid, used as the reference standard, were purchased from Sigma-Aldrich. Micropipettes Labmate (BRAND Dig. 10–100 μL; Dig. 100–1000 μL) and Transferpette (HIGH TECH LAB LM200: 20–200 μL; LM5000: 1000–5000 μL) were used to collect the samples. The assays were carried out by a double beam UV–vis Lambda 40 Perkin Elmer spectrophotometer using optical polystyrene cuvettes (10 × 10 × 45 mm, 340–800 nm optical transparency); each measure was repeated at least in triplicate. For data processing, UV-WIN Lab version 2.0 (Perkin Elmer Corporation) was used. The antioxidant activity of the tested compounds was evaluated by the DPPH method[34] based on the ability of antioxidant compounds to react with the stable radical DPPH, which has a maximum absorption at about 515 nm. Thus, by measuring the decrease in absorbance over time of DPPH solutions to which increasing amounts of the tested compound are added, the antioxidant activity of the compound can be determined.
[…]. To 2.90 mL of MeOH, 60 μL of a DPPH solution in MeOH (∼1.2 mM) and 40 μL of an antioxidant solution in MeOH (4.5 mM) were added to have in the cuvette concentrations of DPPH equal to about 25 μM and of antioxidant equal to 60 μM. The exact DPPH concentration was calculated through the Lambert–Beer relation, known the extinction coefficient of DPPH at 515 nm, equal to 1.25 × 10^4.[34] The absorbance was recorded until the plateau was reached.
. To obtain the initial DPPH concentration, 2.94 mL of MeOH and 60 μL of the DPPH solution in MeOH (∼1.2 mM) were placed in a polystyrene cuvette and the absorbance was recorded at 515 nm. The exact initial DPPH concentration was calculated through the Lambert–Beer relation. For subsequent measurements, the cuvettes were set up by introducing the opportune volume of MeOH to reach a total volume of 3 mL, 60 μL of the DPPH solution in MeOH (∼1.2 mM, to have a final concentration of ∼25 μM), and the appropriate volumes of the antioxidant stock solution in MeOH to have final concentrations between 1.5 and 12 μM for 20 and between 5 and 60 μM for 18 and 30; the absorbance was recorded at 515 nm at the plateau and then after 1 min for compound 20 and after 90 min for compounds 18 and 30. Each measure was repeated four times. With absorbance data, the percentages of residual DPPH at steady state were obtained using the following equation: [drawing 3] where Ac is the average of absorbance in the presence of antioxidant at plateau and A0 is the average of the initial absorbance of DPPH.
The same procedure was performed using ascorbic acid as the antioxidant at cuvette concentrations between 1.5 and 18 μM, recording the absorbance at 515 nm after 2 min from the preparation of the cuvettes.

[3] = read-out: % inhibition vs EeAChE ± SD (9 uM), 9 uM, supplement csv
[4] = read-out: % inhibition vs EeAChE ± SD, [I] 9 μM, 0.0833 U/mL enzyme, 100 μM acetylthiocholine
[5] = 0.0833 U/mL enzyme, 100 μM acetylthiocholine, read-out: % inhibition vs eqBChE ± SD
[6] = [I] 9 μM, 0.0833 U/mL enzyme, 100 μM acetylthiocholine, read-out: % inhibition vs eqBChE ± SD
[7] = read-out: % inhibition vs eqBChE ± SD (9 uM), 9 uM, supplement csv
[8] = 0.0833 U/mL enzyme, 100 μM acetylthiocholine

T1 sequence (O42275 24-633): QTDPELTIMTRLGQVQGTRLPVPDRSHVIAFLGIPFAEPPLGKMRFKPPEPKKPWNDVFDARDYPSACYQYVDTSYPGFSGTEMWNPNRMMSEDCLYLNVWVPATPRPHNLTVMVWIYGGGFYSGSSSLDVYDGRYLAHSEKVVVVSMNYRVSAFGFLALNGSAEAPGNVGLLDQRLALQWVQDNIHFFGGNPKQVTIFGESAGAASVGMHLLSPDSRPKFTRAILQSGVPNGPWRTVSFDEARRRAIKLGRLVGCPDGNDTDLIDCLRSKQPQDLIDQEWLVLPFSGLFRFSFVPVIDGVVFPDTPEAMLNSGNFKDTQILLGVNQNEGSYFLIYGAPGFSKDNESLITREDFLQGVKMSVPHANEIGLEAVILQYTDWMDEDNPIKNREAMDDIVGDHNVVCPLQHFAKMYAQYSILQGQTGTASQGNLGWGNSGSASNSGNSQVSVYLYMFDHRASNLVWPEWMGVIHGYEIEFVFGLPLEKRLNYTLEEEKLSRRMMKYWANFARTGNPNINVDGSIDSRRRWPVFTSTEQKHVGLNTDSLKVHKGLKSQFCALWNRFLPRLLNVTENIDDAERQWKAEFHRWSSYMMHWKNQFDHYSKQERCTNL
T2 sequence (P81908 whole entry): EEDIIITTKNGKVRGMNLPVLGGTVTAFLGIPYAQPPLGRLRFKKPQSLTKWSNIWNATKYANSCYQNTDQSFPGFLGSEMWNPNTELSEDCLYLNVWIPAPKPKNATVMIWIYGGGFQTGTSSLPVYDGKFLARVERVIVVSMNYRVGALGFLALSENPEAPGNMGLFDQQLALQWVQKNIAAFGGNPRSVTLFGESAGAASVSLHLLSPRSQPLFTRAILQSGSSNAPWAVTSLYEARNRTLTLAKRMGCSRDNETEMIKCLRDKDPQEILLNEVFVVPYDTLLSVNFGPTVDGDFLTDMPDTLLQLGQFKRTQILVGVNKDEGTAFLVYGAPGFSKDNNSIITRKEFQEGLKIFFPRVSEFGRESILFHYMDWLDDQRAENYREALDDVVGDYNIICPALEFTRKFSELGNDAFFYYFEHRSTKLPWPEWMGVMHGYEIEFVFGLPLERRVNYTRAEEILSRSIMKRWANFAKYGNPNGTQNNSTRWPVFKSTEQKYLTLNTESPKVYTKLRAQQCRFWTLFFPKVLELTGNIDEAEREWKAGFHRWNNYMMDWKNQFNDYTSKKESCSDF

Row | SMILES | inhibition at 9 µM [1, 3] [%] | inhibition at 90 µM ([1]; supplement csv) [%] | inhibition at 9 µM [1, 4] [%] | inhibition at 0.9 µM (equine BChE (eqBChE); [5]) [%] | inhibition at 9 µM (equine BChE (eqBChE); [6]) [%] | inhibition at 9 µM (equine BChE (eqBChE); [7]) [%] | inhibition at 900 µM ([1]; supplement csv) [%] | inhibition at 0.9 µM [1, 8] [%] | % inhibition vs eqBChE ± SD (900 uM) (equine BChE (eqBChE); supplement csv) [%] | reaction time (time for reaching the plateau) [2] [min]
1 | COc1cc(CNCCCCCCNc2ccccn2)cc(OC)c1OC [Compound 29, N^1-(Pyridin-2-yl)-N^6-(3,4,5-trimethoxybenzyl)hexane-1,6-diamine] | 30.9 ± 1.1 | 68.9 ± 4.1 | 24 to 30 | 19 ± 2.5 | 68.9 ± 4.1 | 19 ± 2.5 | – | – | – | –
2 | Clc1cc(CNCCCCCCNc2ccccn2)cc(Cl)n1 [Compound 33, N^1-((2,6-Dichloropyridin-4-yl)methyl)-N^6-(pyridin-2-yl)hexane-1,6-diamine] | 40.6 ± 4.1 | 68.3 ± 2.9 | ~40 | 13 ± 0.7 | 68.3 ± 2.9 | 13 ± 0.7 | 6.2 ± 1.1 | 6.2 ± 1.1 | – | –
3 | COc1ccccc1CNCCCCCCNc1ncccn1 [Compound 16, N^1-(2-Methoxybenzyl)-N^6-(pyrimidin-2-yl)hexane-1,6-diamine] | 68.3 ± 0.7 | – | 60 to 70 | 6.2 ± 0.4 | 43.9 ± 4.8 | 43.9 ± 4.8 | 15.7 ± 1.1 | 15.7 ± 1.1 | 6.2 ± 0.4 | –
4 | Oc1cccc(CNCCCCCCNc2ccccn2)c1 [Compound 31, 3-(((6-(Pyridin-2-ylamino)hexyl)amino)methyl)phenol] | 42.2 ± 2.2 | 56 ± 3.8 | ~40 | 19.1 ± 2.2 | 56 ± 3.8 | 19.1 ± 2.2 | – | – | – | –
5 | Clc1ccc(CNCCCCCCNc2ncccn2)cc1 [Compound 15, N^1-(4-Chlorobenzyl)-N^6-(pyrimidin-2-yl)hexane-1,6-diamine] | 29.9 ± 1.2 | – | 29.9 ± 1.2 | – | 21.5 ± 1.2 | 21.5 ± 1.2 | – | – | – | –
6 | Brc1ccc(CNCCCCCCNc2ncccn2)cc1 [Compound 14, N^1-(4-Bromobenzyl)-N^6-(pyrimidin-2-yl)hexane-1,6-diamine] | 23 ± 1.6 | – | 23 ± 1.6 | 6.6 ± 0.2 | 38.6 ± 5.5 | 38.6 ± 5.5 | – | – | 6.6 ± 0.2 | –
7 | Clc1cc(CNCCCCCCNc2ncccn2)cc(Cl)n1 [Compound 21, N^1-((2,6-Dichloropyridin-4-yl)methyl)-N^6-(pyrimidin-2-yl)hexane-1,6-diamine] | 18.5 ± 1.8 | – | 18.5 ± 1.8 | – | 26.8 ± 0.4 | 26.8 ± 0.4 | – | – | – | –
8 | Oc1cccc(CNCCCCCCNc2ccccn2)c1O [Compound 32, 3-(((6-(Pyridin-2-ylamino)hexyl)amino)methyl)benzene-1,2-diol] | 63.9 ± 2.2 | 59.8 ± 1.5 | ~60 | 11.5 ± 2.9 | 59.8 ± 1.5 | 11.5 ± 2.9 | 23.9 ± 1.5 | 23.9 ± 1.5 | – | –
9 | O=C1O[C@H]([C@@H](O)CO)C(O)=C1O [ascorbic acid, reference compound] | – | – | – | – | – | – | – | – | – | 2
10 | Brc1ccc(CNCCCCCNc2ncccn2)cc1 [Compound 10, N^1-(4-Bromobenzyl)-N^5-(pyrimidin-2-yl)pentane-1,5-diamine] | 14.5 ± 0.7 | – | 14.5 ± 0.7 | – | 17.1 ± 0.9 | 17.1 ± 0.9 | – | – | – | –
11 | Clc1cc(CNCCCCCNc2ncccn2)cc(Cl)n1 [Compound 12, N^1-((2,6-Dichloropyridin-4-yl)methyl)-N^5-(pyrimidin-2-yl)pentane-1,5-diamine] | 16.5 ± 2 | – | 16.5 ± 2 | – | 8.5 ± 1.3 | 8.5 ± 1.3 | – | – | – | –
12 | COc1cc(CNCCCCCCNc2ncccn2)cc(OC)c1OC [Compound 17, N^1-(Pyrimidin-2-yl)-N^6-(3,4,5-trimethoxybenzyl)hexane-1,6-diamine] | 16.4 ± 2.8 | – | 16.4 ± 2.8 | – | 29.4 ± 4.5 | 29.4 ± 4.5 | – | – | – | –
13 | COc1ccccc1CNCCCCCNc1ncccn1 [Compound 11, N^1-(2-Methoxybenzyl)-N^5-(pyrimidin-2-yl)pentane-1,5-diamine] | 62.2 ± 0.9 | – | 60 to 70 | – | 22.1 ± 1.3 | 22.1 ± 1.3 | 14.6 ± 0.6 | 14.6 ± 0.6 | – | –
14 | CC(C)(C)OC(=O)NCCCCCCNc1ncccn1 [Compound 2, tert-Butyl {6-[(Pyrimidin-2-yl)amino]hexyl}carbamate] | – | – | – | – | – | – | – | – | – | 1
15 | Brc1ccc(CNCCCCCNc2ccccn2)cc1 [Compound 24, N^1-(4-Bromobenzyl)-N^5-(pyridin-2-yl)pentane-1,5-diamine] | 18.2 ± 3.5 | 56.4 ± 1.6 | 18.2 ± 3.5 | 12.1 ± 4.6 | 56.4 ± 1.6 | 12.1 ± 4.6 | – | – | – | –
16 | Clc1ccc(CNCCCCCCNc2ccccn2)cc1 [Compound 27, N^1-(4-Chlorobenzyl)-N^6-(pyridin-2-yl)hexane-1,6-diamine] | 27.7 ± 4.7 | 73.2 ± 3.6 | 24 to 30 | 17.7 ± 5.2 | 73.2 ± 3.6 | 17.7 ± 5.2 | – | – | – | –
